Values joined by “and” are separate entries in the source; they are usually repeats but may differ in a detail not shown here. Equal values may be shown once.
Columns and labels:
Mec-1 cells = assay: Cell growth curves over 12 days, Mec-1; assay type: cell-based
Protocol: Live cells/mL were counted on days 3, 6, 10, and 12. […] The split factor was calculated at indicated time points by dividing the counted cells/mL by 3E5. Cell growth was extrapolated over time by multiplying the subsequent cell count by the previous split factor. Cell growth is plotted as fold change relative to DMSO-treated cells.

[1] = system: Eµ-PRMT5/TCL1 Cd19+Cd5+ spleen cells engrafted into immunocompetent C57/BL6J mice; assay: Adoptive transfer of Eµ-PRMT5/TCL1 spleen cells into C57/BL6J mice, treatment study; assay type: in vivo
Protocol: For adoptive transfer, viable Cd19^+Cd5^+ cells (5 × 10^6) from the spleen of an Eµ-PRMT5/TCL1 transgenic mouse with active CLL-like leukemia (>80% circulating in peripheral blood) and palpable splenomegaly were engrafted by tail vein into immunocompetent C57/BL6J female mice. Engrafted mice were randomly assigned to treatment conditions: PRT382 10 mg/kg, EPZ015666 50 mg/kg, or vehicle (0.5% methylcellulose, 0.1% tween) at 1-week post engraftment. All treatments were administered by oral gavage 4 contiguous days per week (Mon-Thurs). Predefined euthanasia criteria for mice in all transgenic colonies and murine transplant models were followed and included lethargy, impaired motility, splenomegaly, enlarged lymph nodes and/or superficial lymphoid tumors greater than 1.6 cm in diameter (or cumulative diameter of 1.6 cm if multiple tumors), decrease in body weight (>20%), ruffled fur, hunched back, failure to nest, and loss of appetite.

## O=C(NC[C@H](O)CN1CCc2ccccc2C1)c1cc(NC2COC2)ncn1 [EPZ015666]
Mec-1 cells; Mec-1, 1 nM, day 10
  Rep 2 Live Cells [Fold Change]: 819 Fold Change
Mec-1 cells; Mec-1, 1 nM, day 12
  Rep 1 Live Cells [Fold Change]: 3882.24 Fold Change
  Rep 2 Live Cells [Fold Change]: 4970 Fold Change
Mec-1 cells; Mec-1, 10 nM, day 0
  Rep 1 Live Cells [Fold Change]: 1 Fold Change
  Rep 2 Live Cells [Fold Change]: 1 Fold Change
Mec-1 cells; Mec-1, 10 nM, day 3
  Rep 1 Live Cells [Fold Change]: 7.233 Fold Change
  Rep 2 Live Cells [Fold Change]: 10.3 Fold Change
Mec-1 cells; Mec-1, 10 nM, day 6
  Rep 1 Live Cells [Fold Change]: 40.9889 Fold Change
  Rep 2 Live Cells [Fold Change]: 85.8 Fold Change
Mec-1 cells; Mec-1, 10 nM, day 10
  Rep 1 Live Cells [Fold Change]: 534.674 Fold Change
  Rep 2 Live Cells [Fold Change]: 1290 Fold Change
Mec-1 cells; Mec-1, 10 nM, day 12
  Rep 1 Live Cells [Fold Change]: 1546.22 Fold Change
  Rep 2 Live Cells [Fold Change]: 3960 Fold Change
Mec-1 cells; Mec-1, 100 nM, day 0
  Rep 1 Live Cells [Fold Change]: 1 Fold Change
  Rep 2 Live Cells [Fold Change]: 1 Fold Change
  Rep 3 Live Cells [Fold Change]: 1 Fold Change
  Rep 4 Live Cells [Fold Change]: 1 Fold Change
Mec-1 cells; Mec-1, 100 nM, day 3
  Rep 1 Live Cells [Fold Change]: 10.3 Fold Change
  Rep 2 Live Cells [Fold Change]: 8.66 Fold Change
  Rep 3 Live Cells [Fold Change]: 6.583 Fold Change
  Rep 4 Live Cells [Fold Change]: 8.22 Fold Change
Mec-1 cells; Mec-1, 100 nM, day 6
  Rep 1 Live Cells [Fold Change]: 88.992 Fold Change
  Rep 2 Live Cells [Fold Change]: 55.1353 Fold Change
  Rep 3 Live Cells [Fold Change]: 56.8361 Fold Change
  Rep 4 Live Cells [Fold Change]: 60.1 Fold Change
Mec-1 cells; Mec-1, 100 nM, day 10
  Rep 2 Live Cells [Fold Change]: 518.272 Fold Change
  Rep 3 Live Cells [Fold Change]: 601.592 Fold Change
  Rep 4 Live Cells [Fold Change]: 484 Fold Change
Mec-1 cells; Mec-1, 100 nM, day 12
  Rep 1 Live Cells [Fold Change]: 615.119 Fold Change
  Rep 2 Live Cells [Fold Change]: 1560 Fold Change
  Rep 3 Live Cells [Fold Change]: 1676.06 Fold Change
  Rep 4 Live Cells [Fold Change]: 3230 Fold Change
Mec-1 cells; Mec-1, 1 µM, day 0
  Rep 1 Live Cells [Fold Change]: 1 Fold Change
  Rep 2 Live Cells [Fold Change]: 1 Fold Change
  Rep 3 Live Cells [Fold Change]: 1 Fold Change
  Rep 4 Live Cells [Fold Change]: 1 Fold Change
Mec-1 cells; Mec-1, 1 µM, day 3
  Rep 1 Live Cells [Fold Change]: 7.867 Fold Change
  Rep 2 Live Cells [Fold Change]: 5.46 Fold Change
  Rep 3 Live Cells [Fold Change]: 6.18 Fold Change
  Rep 4 Live Cells [Fold Change]: 8.87 Fold Change
Mec-1 cells; Mec-1, 1 µM, day 6
  Rep 1 Live Cells [Fold Change]: 54.0178 Fold Change
  Rep 2 Live Cells [Fold Change]: 38.4384 Fold Change
  Rep 3 Live Cells [Fold Change]: 49.852 Fold Change
  Rep 4 Live Cells [Fold Change]: 61.2 Fold Change
Mec-1 cells; Mec-1, 1 µM, day 10
  Rep 1 Live Cells [Fold Change]: 514.04 Fold Change
  Rep 2 Live Cells [Fold Change]: 244.725 Fold Change
  Rep 3 Live Cells [Fold Change]: 462.377 Fold Change
  Rep 4 Live Cells [Fold Change]: 387 Fold Change
Mec-1 cells; Mec-1, 1 µM, day 12
  Rep 1 Live Cells [Fold Change]: 1825.77 Fold Change
  Rep 2 Live Cells [Fold Change]: 748.774 Fold Change
  Rep 3 Live Cells [Fold Change]: 1841.8 Fold Change
  Rep 4 Live Cells [Fold Change]: 1610 Fold Change
Mec-1 cells; Mec-1, continuous exposure over 12 days
  effect on growth potential (cell growth): No changes in growth potential
[1]; Figure 7F, per mouse, week 1, in % (unit assumed)
  Week 1 CD19+/B220dim: 11.48 and 18.62 and 27.54 and 11.19 and 10.12 and 10.58 and 15.76 and 16.07 and 10.74
[1]; Figure 7F, per mouse, week 2, in % (unit assumed)
  Week 2 CD19+/B220dim: 15.67 and 34.32 and 54.88 and 26.83 and 24.62 and 12.62 and 27.46 and 30.9 and 21.08
[1]; Figure 7F, per mouse, week 3, in % (unit assumed)
  Week 3 CD19+/B220dim: 36.29 and 68.26 and 63.64 and 49.66 and 47.13 and 26.83 and 51.14 and 52.04 and 25.17
[1]; Figure 7F, per mouse, week 4, in % (unit assumed)
  Week 4 CD19+/B220dim: 56.34 and 75.81 and 60.54 and 71.56 and 63.33 and 48.69 and 69.46 and 71.25 and 53.76
[1]; Figure 7F, per mouse, week 5
  Week 5 CD19+/B220dim: 50.26 and 79.76 and 83.28 and 82.04 and 59.53 and 59.67 and 70.88 and 81.41 and 79.52
[1]; Figure 7F, per mouse, week 6, in % (unit assumed)
  Week 6 CD19+/B220dim: 79.53 and 74.33 and 84.12 and 75.35 and 79.18 and 56.6 and 82.56 and 74.54 and 89.39
[1]; Figure 7F, per mouse, week 7, in % (unit assumed)
  Week 7 CD19+/B220dim: 80.7 and 87.13 and 89.6 and 89.4 and 86.59 and 66 and 85.98 and 83.54 and 93.2
[1]; Figure 7F, per mouse, week 8
  Week 8 CD19+/B220dim: 84.94 and 92.1 and 90.67 and 85.36 and 88.33 and 44.29 and 85.8 and 89.46
[1]; Figure 7F, per mouse, week 9
  Week 9 CD19+/B220dim: 85.98 and 79.2 and 88.88
[1]; Figure 7F, per mouse, week 10, in % (unit assumed)
  Week 10 CD19+/B220dim: 88.79
[1]; Figure 7G, survival endpoint indicator, per mouse
  Endpoint: 1
[1]; Figure 7G, survival, per mouse
  Days since enrollment: 64 days and 50 days and 52 days and 51 days and 58 days and 45 days
[1]; Figure 7H, per mouse
  Spleen weight: 1.7 g and 2.27 g and 2.35 g and 2.58 g and 2.18 g and 1.84 g and 2.11 g and 1.38 g
[1]; PRT382 10 mg/kg, EPZ015666 50 mg/kg, oral gavage 4 contiguous days per week
  Median survival post-enrollment: 51 days
[1]; individual mice, Supplemental Figure 6F
  Spleen volume: 1489.45 mm3 and 4749.69 mm3 and 2852.93 mm3 and 3279.99 mm3 and 2090.66 mm3 and 1726.14 mm3 and 2169.7 mm3 and 1234.53 mm3
